Values of other authors as cited in patent publication US8569304B2, “Active esters of N-substituted piperazine acetic acids, including isotopically enriched versions thereof” (DH Technologies Development Pte. Ltd., priority 2004, dated 2013).

Settings: alcohol (leaving group) used to form the trifluoroacetate ester / active ester

**Q.** With O=C1CCC(=O)N1O [NHS, N-Hydroxysuccinimide] as the compound, how does the pKa read?
**A.** 7.80
